Entries after “also recorded” stand apart in the source; their conditions may differ.
Experiments:
[1] = system: FICDs (c-FMS intracellular fragments); test: FICD generation in M-CSF-cultured human CD14+ cells, immunoblot of whole lysates; type: cell-based; conditions: BB94 10 uM for 2 days after 8 hours M-CSF (20 ng/ml)
Protocol: FIGS. 8A-8I show c-FMS expression in synovial macrophages. (A) The levels of M-CSF in synovial fluids from patients with rheumatoid arthritis (RA, n=13) and osteoarthritis (OA, n=8) were measured. (B) Mass spectrometry analysis for proteins from ˜50 kDa bands (red box) identified c-FMS as one of top genes. An image of coomassie blue stained genes showing immunoprecipitated cells lysates with either anti-DDK-tag antibodies or IgG control. (C-G) Human CD14+ cells were cultured with M-CSF (20ng/ml). Immunoblot of c-FMS with different antibodies against C-terminal of c-FMS; (C) C-20, (D) D-8, and (E) #3152. Immunoblot of c-FMS with different antibodies against N-terminal of c-FMS; (F) #61701, (G) H-300. (H-I) Human CD14+ cells were cultured with M-CSF (20 ng/ml) for 8 hours to induce early signals, and then BB94 (10 uM) was added for 2 days. (H) Immunoblot with anti c-FMS and α-tubulin antibodies in whole lysates (n=3). (I) Soluble c-FMS was detected by ELISA (n=3). […] All data are shown as mean±SEM. *; p<0.05 significant by two-tailed, paired t-test (A and I). M: mature form, I: immature form, H: hgh mass, L: low mass.
FIGS. 10A-10F show calpain regulates FICD generation. (A and B) Human CD14+ cells were cultured with M-CSF (20 ng/ml) for 8 hours to induce early signals and then (A) MDL 28170(0, 1, 2, 5 uM) or (B) PD150606 (0, 2, 5 uM) was added for 2 days. […]

[2] = system: soluble c-FMS (ectodomain shedding of c-FMS); test: Soluble c-FMS in culture media of human CD14+ cells, ELISA; type: cell-based; conditions: BB94 10 uM for 2 days after 8 hours M-CSF (20 ng/ml)
Protocol: FIGS. 8A-8I show c-FMS expression in synovial macrophages. (A) The levels of M-CSF in synovial fluids from patients with rheumatoid arthritis (RA, n=13) and osteoarthritis (OA, n=8) were measured. (B) Mass spectrometry analysis for proteins from ˜50 kDa bands (red box) identified c-FMS as one of top genes. An image of coomassie blue stained genes showing immunoprecipitated cells lysates with either anti-DDK-tag antibodies or IgG control. (C-G) Human CD14+ cells were cultured with M-CSF (20ng/ml). Immunoblot of c-FMS with different antibodies against C-terminal of c-FMS; (C) C-20, (D) D-8, and (E) #3152. Immunoblot of c-FMS with different antibodies against N-terminal of c-FMS; (F) #61701, (G) H-300. (H-I) Human CD14+ cells were cultured with M-CSF (20 ng/ml) for 8 hours to induce early signals, and then BB94 (10 uM) was added for 2 days. […] (I) Soluble c-FMS was detected by ELISA (n=3). […]
c-FMS and M-CSF in synovial fluids and the supernatants of cell culture was measured using sandwich ELISA kit (R&D Systems; DY329 and DY216) according to manufacturer's instructions. C-telopeptide of type I collagen (CTX-1) and Procollagen 1 N-Terminal Propeptide (P1NP) in Serum from WT and FICDtg^M mice were measured using RatLapstm EIA kit (Immunodiagnostic Systems; AC-06F1) or P1NP-ELISA kit (Cloud-Clone corp; SEA957Mu) according to the manufacturer's instructions.

[3] = system: FICD (mem, H-FICD, L-FICD); test: FICD in membrane, cytoplasmic and nuclear fractions of human OCPs, immunoblot; type: cell-based; conditions: for generation of H-FICD and L-FICD and cellular distribution of FICDs: human CD14+ cells stimulated with ligand (20 ng/ml)
Protocol: (a) Human CD14+ cells were cultured with M-CSF (20 ng/ml) for 8 hours to induce early signals and then DAPT (10uM) was added for 2 days. Protein expression of c-FMS, Na+K+ pump, Lamin B1 and α-tubulin, as determined by immunoblot. ME; membrane extracts, CE; cytoplasmic extracts, and NE; nuclear extracts. (b) Immunohistochemistry of DAPI and c-FMS [middle]. […] Scale: 200×. (c) Cells were starved for three hours and then stimulated with M-CSF for the indicated times. (d and e) Cells were treated with Imatinib (0.3 μM, d) or c-FMS blocking antibody (5 μg) prior to the addition of M-CSF. Protein expression of FICD was measured by immunoblot. Lamin B1 and α-tubulin were used as controls for nuclear and cytoplasmic fractions, respectively. (f) Human CD14+ cells were cultured with M-CSF (20 ng/ml) for 8 hours to induce early signals and then MDL 28170(5 uM). Immunoblot with anti c-FMS and Lamin B1 antibodies. (g and h) Calpain 1, 5, and 6 were knocked down with siRNAs. Cells were cultured with M-CSF for 12 hours. (g) Efficiency of knockdown of Calpain 1, 5, and 6. (h) Immunoblot of c-FMS and Lamin B1. All data are shown as mean±SEM. *,p<0.05 by two-tailed, unpaired t-test (g). Representative results from at least three independent experiments.
(A and B) Human CD14+ cells were cultured with M-CSF (20 ng/ml) for 8 hours to induce early signals and then (A) MDL 28170(0, 1, 2, 5 uM) or (B) PD150606 (0, 2, 5 uM) was added for 2 days. Immunoblot with anti c-FMS and α-tubulin antibodies in whole lysates(n=3). (C) Immunoblot of nuclear lysates with c-FMS and Lamin B1 antibodies. Cells were cultured with M-CSF for 12 hours, and then M-CSF was removed. Cells were subsequently treated with or without CaCl2 (10 mM) for an additional 24 hours. (D) Osteoclastogenesis assay. Human CD14+ cells were cultured with M-CSF, RANKL and MDL28170 for 4 days. […] Black scale bar is 100 μm. […] First two calpain cleavage sites in cytoplasmic domains of c-FMS were used for FICD constructs. (F) A schematic diagram of a FICD construct. Representative results from at least three independent experiments.
Whole cell extracts were prepared by lysis in buffer containing 1× Lamin sample buffer (Bio-rad) and 2-Mercaptoethanol (Sigma) or RIPA buffer (Sigma). The cell membrane-permeable protease inhibitor, Pefablock (1 mM), was added immediately prior to harvest cells. The membrane proteins were extracted with Mem-PER™ Plus Membrane Protein Extraction Kit (Thermorfisher scientific; 89842) according to manufacturer's instructions. To extracts of nucleus protein, cells were incubated in buffer A (10 mM Hepes, pH 7.9, 1.5 mM MgCl2, 10 mM KCl, 0.1 mM EDTA, 0.1 mM EGTA, proteinase inhibitor cocktail (Complete, Roche) and 1 mM DTT) for 15 min at 4° C. NP-40 was added to a final concentration of 0.5%. Nucleus was collected by centrifugation (5000 rpm, 5 min). The pellets were lysed by Bioruptor-ultrasonicator (UCD400, Diagenode) in buffer B (20 mM Hepes, pH 7.9, 0.4M NaCl, 10 mM KCl, 1 mM EDTA, 1 mM EGTA, 10% Glycerol, proteinase inhibitor cocktail and 1 mM DTT) and collected the supernatant by centrifugation (12,000 rpm, 10 min). The protein concentration of nuclear extracts was quantitated using the Bradford assay (Bio-Rad; 5000001). For immunoblot, proteins were separated on 7.5 or 10% SDS-PAGE gels, transferred to polyvinylidene difluoride membranes (PVDF, Millipore; ISEQ00010), and detected by antibodies as listed in the figure legends.

L-FICD generation = test: Screening of 53 protease inhibitors from a protease library for L-FICD generation; type: cell-based
Text: To identify the protease(s) responsible for cleavage of H-FICD in an unbiased manner, we performed a screening of 53 protease inhibitors using a protease library. The best hits associated with the inhibition of L-FICD generation were MDL28170 and PD150606—two calpain inhibitors—along with MMP inhibitors and γ-secretase inhibitors. Calpain is the family of calcium-dependent cytosolic cysteine proteases expressed ubiquitously in mammals and many other organisms (Pfaff, M., Du, X. & Ginsberg, M. H. Calpain cleavage of integrin beta cytoplasmic domains. FEBS Lett 460, 17-22 (1999)), and calpain-dependent cleavages contribute to modulating various cellular functions such as apoptosis, proliferation and migration (Deshpande, R. V. et al. Calpain expression in lymphoid cells. Increased mRNA and protein levels after cell activation. J Biol Chem 270, 2497-2505 (1995). Svensson, L. et al. Calpain 2 controls turnover of LFA-1 adhesions on migrating T lymphocytes. PloS one 5, e15090, doi:10.1371/journal.pone.0015090 (2010).). […] Since calpain is activated by calcium, we examined if calcium signaling could compensate for M-CSF signaling to generate FICDs. In the absence of c-FMS signaling, calcium signaling was able to promote the cleavage of […] in the nucleus, and […] reversed the effect of calcium signaling on L-FICD processing (FIG.10C). […]

arthritic bone erosion = conditions: rheumatoid arthritis patients; cited from earlier work
[4] = DAPT 10uM for 2 days after 8 hours M-CSF (20 ng/ml)

CNC(=O)[C@H](Cc1ccccc1)NC(=O)[C@H](CC(C)C)[C@H](CSc1cccs1)C(=O)NO [BB94]
generation of FICDs [1]: suppressed the generation of FICDs | ectodomain shedding of c-FMS, soluble c-FMS in the media [2]: inhibited the ectodomain shedding of c-FMS; also recorded: inhibited the shedding of c-FMS and diminished soluble c-FMS in the media

C[C@H](NC(=O)Cc1cc(F)cc(F)c1)C(=O)N[C@H](C(=O)OC(C)(C)C)c1ccccc1 [DAPT, N-[N-(3,5-difluorophenacetyl)-L-alanyl]-S-phenylglycine t-butyl ester]
cytosol and nuclear FICDs [3, 4]: suppressed | membrane-bound FICD [3, 4]: membrane-bound FICD accumulated

O=C(O)/C(S)=C/c1ccc(I)cc1 [PD150606]
inhibition of L-FICD generation (hit in screening) (L-FICD generation): best hits

denosumab: an anti-RANKL antibody
RA disease activity (arthritic bone erosion): without affecting | progression of arthritic bone erosion (arthritic bone erosion): shows efficacy

B1: M-CSF: ligand for c-FMS (protein, UniProt P09603 33-554, looked up)
Macrophage colony-stimulating …: EEVSEYCSHMIGSGHLQSLQRLIDSQMETSCQITFEFVDQEQLKDPVCYLKKAFLLVQDIMEDTMRFRDNTPNAIAIVQLQELSLRLKSCFTKDYEEHDKACVRTFYETPLQLLEKVKNVFNETKNLLDKDWNIFSKNCNNSFAECSSQDVVTKPDCNCLYPKAIPSSDPASVSPHQPLAPSMAPVAGLTWEDSEGTEGSSLLPGEQPLHTVDPGSAKQRPPRSTCQSFEPPETPVVKDSTIGGSPQPRPSVGAFNPGMEDILDSAMGTNWVPEEASGEASEIPVPQGTELSPSRPGGGSMQTEPARPSNFLSASSPLPASAKGQQPADVTGTALPRVGPVRPTGQDWNHTPQKTDHPSALLRDPPEPGSPRISSLRPQGLSNPSTLSAQPQLSRSHSSGSVLPLGELEGRRSTRDRRSPAEPEGGPASEGAARPLPRFNSVPLTDTGHERQSEGSFSPQLQESVFHLLVPSVILVLLAVGGLLFYRWRRRSHQEPQRADSPLEQPEGSPLTQDDRQVELPV
generation of H-FICD and L-FICD and cellular distribution of FICDs [3]: induced

B2: IL-34: ligand for c-FMS (protein, UniProt Q6ZMJ4 21-242, looked up)
Interleukin-34: NEPLEMWPLTQNEECTVTGFLRDKLQYRSRLQYMKHYFPINYKISVPYEGVFRIANVTRLQRAQVSERELRYLWVLVSLSATESVQDVLLEGHPSWKYLQEVETLLLNVQQGLTDVEVSPKVESVLSLLNAPGPNLKLVRPKALLDNCFRVMELLYCSCCKQSSVLNWQDCEVPSPQSCSPEPSLQYAATQLYPPPPWSPSSPPHSTGSVRPVRAQGEGLLP
generation of H-FICD and L-FICD and cellular distribution of FICDs [3]: induced

— US20220370463A1, “STABILIZED C-FMS INTRACELLULAR FRAGMENTS (FICD) PROMOTE OSTEOCLAST DIFFERENTIATION AND ARTHRITIC BONE EROSION” (New York Society for the Relief of the Ruptured and …, priority 2019, published 2022)
